The values that follow come from patent US20090136482A1, “DRUG TARGET PROTEIN AND TARGET GENE, AND SCREENING METHOD” (REVERSE PROTEOMICS RESEARCH INSTITUTE CO., LTD., priority 2005, published 2009).

Usually Kd stands for the constant that tells how readily two partners part at equilibrium.

SMILES strings stand for the structures.

One assay concerns the target FLJ12514-derived protein (Homo sapiens, UniProt Q9H9A5). Description: Biacore S51 surface plasmon resonance interaction analysis with FLJ12514-derived protein. The following applies: for interaction with the protein (dose-dependent binding amount, saturation at high doses): FLJ12514-derived protein, Biacore S51. Format: binding. The procedure:
(§1) The obtained plasmids were subjected to phenol/chloroform treatment and the inactivation treatment of RNase according to the PROTEIOS (TOYOBO) protocol to give purified expression plasmids.
(§2) The surface of a CM5 sensor chip for S51 (commercially available from Biacore) was converted to NTA using 1 M EDC, 1.33 M NHS, and 16 mg/ml AB-NTA (pH 9.2) to give an NTA sensor chip for S51. […] The immobilization was performed by sequentially injecting 0.5 M NiCl2, 0.4 M EDC, […], a ligand (protein) solution, and 1 M ethanolamine (pH 8.5) into the passage system of Biacore S51. […] For the correction (solvent correction) of the effect of DMSO contained in the compound solutions and the running buffer, the same solutions as the running buffer containing 3.8 to 5.1% DMSO (8 points) were prepared to perform correction based on the measurement results of these solutions.
For orientation: In SPR one partner is held on a chip, and binding of the other changes the refractive index at the surface.

For the next assay, the target named is T1, FLJ14583-derived protein (Homo sapiens, UniProt Q12816).
T1 sequence (Q12816 1-1431): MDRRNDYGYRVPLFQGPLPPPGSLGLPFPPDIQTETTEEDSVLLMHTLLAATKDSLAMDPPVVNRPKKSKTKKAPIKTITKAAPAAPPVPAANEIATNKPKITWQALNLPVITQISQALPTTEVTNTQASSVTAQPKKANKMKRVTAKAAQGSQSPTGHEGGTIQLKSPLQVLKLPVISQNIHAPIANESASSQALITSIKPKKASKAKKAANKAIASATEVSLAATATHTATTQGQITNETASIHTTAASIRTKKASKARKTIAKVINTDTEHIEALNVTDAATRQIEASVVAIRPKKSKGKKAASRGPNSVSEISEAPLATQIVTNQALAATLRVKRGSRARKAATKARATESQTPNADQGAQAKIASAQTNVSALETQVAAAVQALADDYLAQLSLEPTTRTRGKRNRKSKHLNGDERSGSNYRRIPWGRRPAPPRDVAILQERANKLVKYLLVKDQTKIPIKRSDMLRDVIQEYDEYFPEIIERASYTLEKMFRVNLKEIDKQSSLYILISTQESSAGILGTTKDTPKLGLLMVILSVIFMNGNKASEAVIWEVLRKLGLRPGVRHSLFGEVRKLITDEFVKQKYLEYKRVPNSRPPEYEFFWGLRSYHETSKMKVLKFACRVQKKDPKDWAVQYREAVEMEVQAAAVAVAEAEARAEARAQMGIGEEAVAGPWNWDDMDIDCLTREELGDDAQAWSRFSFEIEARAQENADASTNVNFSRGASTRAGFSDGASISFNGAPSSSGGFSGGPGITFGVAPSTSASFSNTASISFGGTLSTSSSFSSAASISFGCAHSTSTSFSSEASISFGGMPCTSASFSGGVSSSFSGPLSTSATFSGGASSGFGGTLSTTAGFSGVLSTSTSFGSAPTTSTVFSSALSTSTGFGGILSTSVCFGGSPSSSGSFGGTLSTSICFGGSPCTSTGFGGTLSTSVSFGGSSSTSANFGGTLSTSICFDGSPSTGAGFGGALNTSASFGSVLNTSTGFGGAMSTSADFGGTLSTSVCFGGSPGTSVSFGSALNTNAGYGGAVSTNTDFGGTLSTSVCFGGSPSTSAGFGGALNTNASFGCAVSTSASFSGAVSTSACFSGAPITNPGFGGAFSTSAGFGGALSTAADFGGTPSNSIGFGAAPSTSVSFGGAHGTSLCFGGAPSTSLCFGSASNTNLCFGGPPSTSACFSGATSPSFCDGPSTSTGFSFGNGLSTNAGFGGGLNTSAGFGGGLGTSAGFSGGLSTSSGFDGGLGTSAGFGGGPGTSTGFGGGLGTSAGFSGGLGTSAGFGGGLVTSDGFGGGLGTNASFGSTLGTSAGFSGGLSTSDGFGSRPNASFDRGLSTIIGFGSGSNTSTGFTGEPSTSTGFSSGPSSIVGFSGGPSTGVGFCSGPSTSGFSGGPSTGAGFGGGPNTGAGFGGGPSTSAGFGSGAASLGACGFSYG
Description: Biacore S51 surface plasmon resonance interaction analysis with FLJ14583-derived protein. Type of assay: binding. The procedure: as §1, §2

A further assay deals with T2, FLJ31146-derived protein (Homo sapiens, UniProt Q9BSE4).
T2 construct: fused on or other part: N-terminal histidine tag and FLAG tag, with Gateway linker residues
T2 sequence (Q9BSE4 1-406): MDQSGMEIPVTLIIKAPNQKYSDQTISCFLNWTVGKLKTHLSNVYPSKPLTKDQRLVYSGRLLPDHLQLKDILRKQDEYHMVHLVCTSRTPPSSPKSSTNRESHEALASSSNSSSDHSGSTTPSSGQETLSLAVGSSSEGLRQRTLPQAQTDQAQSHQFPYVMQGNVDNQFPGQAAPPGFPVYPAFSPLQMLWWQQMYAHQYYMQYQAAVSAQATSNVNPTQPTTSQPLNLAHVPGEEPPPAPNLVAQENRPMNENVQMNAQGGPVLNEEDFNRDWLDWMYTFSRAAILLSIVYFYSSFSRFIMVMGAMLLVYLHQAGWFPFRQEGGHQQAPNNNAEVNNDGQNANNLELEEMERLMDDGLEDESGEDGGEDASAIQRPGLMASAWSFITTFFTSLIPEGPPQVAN
Description: Biacore S51 surface plasmon resonance interaction analysis with FLJ31146-derived protein. Type of assay: binding. On the procedure:
as §1, §2

The target in a further assay is T3, FLJ12502-derived protein (Homo sapiens, UniProt Q7Z3D6).
T3 sequence (Q7Z3D6 1-616 isoform Q7Z3D6-1): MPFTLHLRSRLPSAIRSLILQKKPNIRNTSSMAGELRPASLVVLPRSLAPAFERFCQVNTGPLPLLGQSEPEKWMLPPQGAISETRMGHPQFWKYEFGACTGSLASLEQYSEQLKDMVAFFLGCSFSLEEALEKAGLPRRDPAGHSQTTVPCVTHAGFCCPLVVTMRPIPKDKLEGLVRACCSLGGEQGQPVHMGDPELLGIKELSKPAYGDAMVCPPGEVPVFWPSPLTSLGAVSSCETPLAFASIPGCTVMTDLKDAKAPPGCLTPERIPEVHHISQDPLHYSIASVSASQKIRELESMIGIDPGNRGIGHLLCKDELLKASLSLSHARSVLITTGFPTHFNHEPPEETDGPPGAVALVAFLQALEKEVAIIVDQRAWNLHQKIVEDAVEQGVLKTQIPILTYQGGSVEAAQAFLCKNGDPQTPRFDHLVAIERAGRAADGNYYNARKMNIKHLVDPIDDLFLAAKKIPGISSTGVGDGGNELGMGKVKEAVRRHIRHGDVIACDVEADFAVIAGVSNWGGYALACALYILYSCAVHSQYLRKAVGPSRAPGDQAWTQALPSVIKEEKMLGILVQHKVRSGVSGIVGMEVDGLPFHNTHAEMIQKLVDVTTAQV
In words: Biacore S51 surface plasmon resonance interaction analysis with FLJ12502-derived protein.

The target in another assay is T4, FLJ10368-derived protein (Homo sapiens, UniProt Q9NUX5).
T4 construct: fused on or other part: N-terminal histidine tag and FLAG tag, with Gateway linker residues
T4 sequence (Q9NUX5 1-634): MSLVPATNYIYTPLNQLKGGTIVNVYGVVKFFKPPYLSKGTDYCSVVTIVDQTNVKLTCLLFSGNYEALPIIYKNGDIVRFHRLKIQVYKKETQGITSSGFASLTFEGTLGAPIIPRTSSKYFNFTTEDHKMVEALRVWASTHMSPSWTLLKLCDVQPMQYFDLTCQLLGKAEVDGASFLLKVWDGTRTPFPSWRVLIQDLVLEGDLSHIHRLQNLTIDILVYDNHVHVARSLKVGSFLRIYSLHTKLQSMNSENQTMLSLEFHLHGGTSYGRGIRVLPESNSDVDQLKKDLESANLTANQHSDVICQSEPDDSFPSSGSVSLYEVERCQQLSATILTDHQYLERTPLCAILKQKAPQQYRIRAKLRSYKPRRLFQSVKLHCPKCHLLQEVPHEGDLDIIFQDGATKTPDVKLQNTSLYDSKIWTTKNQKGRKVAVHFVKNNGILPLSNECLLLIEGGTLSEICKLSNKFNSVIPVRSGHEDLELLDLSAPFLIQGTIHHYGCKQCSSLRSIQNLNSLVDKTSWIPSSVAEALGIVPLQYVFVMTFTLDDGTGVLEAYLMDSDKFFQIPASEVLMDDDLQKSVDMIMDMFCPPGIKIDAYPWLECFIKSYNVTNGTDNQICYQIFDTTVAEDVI
In words: Biacore S51 surface plasmon resonance interaction analysis with FLJ10368-derived protein. Format: binding. The procedure: as §1, §2

Another assay has as its target T5, FLJ12389-derived protein (Homo sapiens, UniProt Q86V21).
T5 sequence (Q86V21 1-672): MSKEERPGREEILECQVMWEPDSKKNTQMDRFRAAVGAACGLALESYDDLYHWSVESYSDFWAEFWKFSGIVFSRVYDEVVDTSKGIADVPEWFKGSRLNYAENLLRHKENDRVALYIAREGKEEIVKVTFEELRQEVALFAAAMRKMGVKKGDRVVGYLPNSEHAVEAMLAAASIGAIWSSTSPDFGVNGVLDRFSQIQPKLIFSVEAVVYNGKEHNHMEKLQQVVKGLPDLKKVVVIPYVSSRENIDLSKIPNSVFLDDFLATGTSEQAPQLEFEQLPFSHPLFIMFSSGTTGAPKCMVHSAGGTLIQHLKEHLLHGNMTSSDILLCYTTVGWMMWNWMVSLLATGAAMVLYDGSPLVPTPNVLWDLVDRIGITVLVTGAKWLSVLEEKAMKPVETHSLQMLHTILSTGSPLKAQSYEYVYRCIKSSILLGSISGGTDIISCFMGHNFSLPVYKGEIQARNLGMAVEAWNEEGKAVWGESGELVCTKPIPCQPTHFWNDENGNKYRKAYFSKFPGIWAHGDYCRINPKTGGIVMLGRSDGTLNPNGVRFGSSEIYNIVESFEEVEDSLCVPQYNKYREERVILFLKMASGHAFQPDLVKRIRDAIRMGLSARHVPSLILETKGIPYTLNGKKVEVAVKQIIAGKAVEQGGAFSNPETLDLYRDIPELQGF
Description: Biacore S51 surface plasmon resonance interaction analysis with FLJ12389-derived protein. Type of assay: binding. On the procedure: as §1, §2

FLJ12514-derived protein, sequence (Q9H9A5 whole entry): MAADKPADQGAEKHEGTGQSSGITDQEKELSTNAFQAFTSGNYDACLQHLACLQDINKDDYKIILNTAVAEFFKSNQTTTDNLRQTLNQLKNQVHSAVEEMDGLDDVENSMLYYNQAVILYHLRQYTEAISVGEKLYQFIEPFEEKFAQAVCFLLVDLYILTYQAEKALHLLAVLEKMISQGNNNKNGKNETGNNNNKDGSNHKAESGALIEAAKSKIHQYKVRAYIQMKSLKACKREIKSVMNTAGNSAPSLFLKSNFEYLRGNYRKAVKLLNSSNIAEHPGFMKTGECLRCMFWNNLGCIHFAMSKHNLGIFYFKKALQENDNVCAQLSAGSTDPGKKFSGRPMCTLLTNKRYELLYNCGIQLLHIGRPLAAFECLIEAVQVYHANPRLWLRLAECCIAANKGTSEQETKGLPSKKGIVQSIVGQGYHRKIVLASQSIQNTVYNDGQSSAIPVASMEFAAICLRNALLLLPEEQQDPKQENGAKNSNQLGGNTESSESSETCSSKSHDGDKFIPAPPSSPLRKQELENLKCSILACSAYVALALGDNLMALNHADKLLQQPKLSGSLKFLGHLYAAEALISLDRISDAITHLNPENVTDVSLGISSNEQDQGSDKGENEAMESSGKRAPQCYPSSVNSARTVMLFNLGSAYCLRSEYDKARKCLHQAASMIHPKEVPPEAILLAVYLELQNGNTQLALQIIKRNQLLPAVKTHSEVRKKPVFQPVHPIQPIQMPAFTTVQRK

Consider `CC[C@@]1(O)C[C@H](O[C@H]2C[C@H](N(C)C)[C@H](O[C@H]3C[C@H](O)[C@H](O[C@H]4CCC(=O)[C@H](C)O4)[C@H](C)O3)[C@H](C)O2)c2c(cc3c(c2O)C(=O)c2c(O)cccc2C3=O)[C@H]1C(=O)OC` [aclarubicin], for which, at FLJ12514-derived protein, the affinity, expressed as Kd, was 6.11 µM and the “interaction with the protein (dose-dependent binding amount, saturation at high doses)” value (“interaction with the protein” below) was “specifically interact”.
As to `CC1=C(C(=O)O)N2C(=O)[C@@H](NC(=O)[C@H](N)c3ccccc3)[C@H]2SC1` [cephalexin], the “interaction with the protein” value on FLJ14583-derived protein is on record as “specifically interact”; on FLJ31146-derived protein, “specifically interact”; on FLJ12502-derived protein (FLJ12502-derived protein, Biacore S51), “specifically interact”. The compound further yielded a Kd at FLJ12502-derived protein of 5.98 µM.
As to `COC(=O)[C@H]1[C@H]2C[C@@H]3c4[nH]c5cc(OC)ccc5c4CCN3C[C@H]2C[C@@H](OC(=O)c2cc(OC)c(OC)c(OC)c2)[C@@H]1OC` [reserpine], the “interaction with the protein” value on FLJ10368-derived protein is recorded as “specifically interact”.
With `c1ccc2[nH]c(-c3cscn3)nc2c1` [thiabendazole], the “interaction with the protein” value at FLJ10368-derived protein, at FLJ12389-derived protein and at FLJ12514-derived protein was “specifically interact” in each case.
